Measured values as given in patent US20250082656A1, “DOSAGE REGIMENS FOR TREATMENT OF DENGUE INFECTION” (Atea Pharmaceuticals, Inc., priority 2022, published 2025).

Assay: In vivo formation of AT-9010 in PBMCs, mice

C[C@@]1(F)[C@H](O)[C@@H](COP(=O)(O)OP(=O)(O)OP(=O)(O)O)O[C@H]1n1cnc2c(=O)[nH]c(N)nc21 [Compound 5]
concentration of AT-9010 in PBMCs (loading dose 500 mg/kg then 250 mg/kg 4 h later, 4 h after the second dose): 0.297 pmol/10^6 cells
concentration of AT-9010 in PBMCs (loading dose 500 mg/kg then 250 mg/kg 4 h later, 12 h after the second dose): 0.322 pmol/10^6 cells
concentration of AT-9010 in PBMCs (single oral dose 50 mg/kg, 12 h): 0.092 pmol/10^6 cells
